# Experimental data as given in patent US10632324B2, “Method for the treatment of skin tissues” (9127-4910 Quebec Inc., priority 2017, dated 2020).
# What was measured:
# Type in all cases: in vivo, human
# [1] = test system: diffuse sebaceous gland hyperplasia; assay: Split-face radiant IR skin preparation prior to PDT, diffuse sebaceous gland hyperplasia (Example 4)
# Procedure: A PDT treatment was performed on the face of a patient suffering from diffuse sebaceous gland hyperplasia. They were complaining of redness exacerbated by exercise/effort. […] Facial lesions were distributed mainly on the forehead and cheeks. […] They applied only topical Metrogel. […] Also, comedones and papulo-pustules were present. The patient was skin phototype II (Fitzpatrick classification). Their parent had similar skin condition.
# Prior to PDT, radiant IR skin preparation was performed in only half of face (split face study). Then PDT was completed on the complete facial area. First, the face was washed with a mild soap and an acetone scrub was performed. A 970 nm LED source prototype emitting at 50 mW/cm2 in a CW mode was placed at 1.5 cm from the right side of face and left for 25 min. Right after split face irradiation, 5-aminolevilinic acid (Levulan™ Kerastick™) was applied to the treatment area and left for 90 min. The photosensitizer was then light activated by a 630 nm LED source emitting at 50 mW/cm^2 (LumiPhase-RB, Opusmed, Canada), until erythema was reached (20 min). This treatment was concluded by a 405 nm LED source emitting at 30 mW/cm^2 (LumiPhase-RB, Opusmed, Canada), for 5 min. […] Through a mechanism involving the opening of skin pores, IR radiant skin preparation enhanced drug penetration and absorption by the targeted structures (i.e. sebaceous glands).
# [2] = test system: facial papulo-pustular inflammatory acne lesions; assay: Split-face radiant IR skin preparation prior to PDT, inflammatory acne of the face (Example 6)
# Procedure: A person was treated for facial papulo-pustular inflammatory acne lesions. After performing an acetone scrub on the treatment area, a radiant IR skin preparation was done on the right side of their face (970 nm, 80 mW/cm2, for 30 min). Then 5-aminolevulinic acid (Levulan™ Kerastick™) was applied to the skin and left for 90 min incubation time. […] Radiant IR skin preparation allows for a reduction in the number of PDT treatments necessary for significant clinical improvements.
# [3] = test system: transformation of 5-aminolevulinic acid to protoporphyrin IX (PpIX); assay: FluoDerm fluorescence after 940 nm photopreparation 24, 48, 72 h before 5-ALA, 4 subjects (Example 12)
# Procedure: To obtain greater statistical power and investigate even longer term effects, the above study was repeated on other subjects. Below, the results or comparison between the D50 and CW protocols are shown for 4 subjects. Irradiation was performed in accordance with the pattern of FIG. 44, with measurements taken 24, 48 and 72 hours after pre-treatment with D50 and CW, instead of 8-14, 24-29 and 50-53.
# More specifically, delineated treatment areas were drawn on each subject's back. These spaces had to be close enough together to enable simultaneous irradiation downstream in the experiment. Areas of each patient's back were then irradiated according to the predetermined photopreparation treatment parameter at the appropriate pre-5-ALA application and activation time. In this study, two light pulsing options were compared—pulsed versus continuous. Both options were set at 940 nm. The time set between the photopreparation treatment and the 5-ALA application was the other variable tested. […] Following the appropriately timed photopreparation treatment of the correct back skin area, 20% 5-aminolevulinic acid (Levulan Kerastick, Dusa, Wilmington, USA) was applied to the patient's back. After the topical application, an incubation time of 3 hours was set to optimize the transformation of the medication to protoporphyrin IX (PpIX). Finally, using the Fluoroderm device, the fluorescence of each subject's back areas was measured. The recorded data was statistically analyzed.
# Besides the 20% 5-aminolevulinic acid (Levulan Kerastick, Dusa, Wilmington, USA) used as the photosensitizer and the FluoDerm (Dia-Medico, Denmark) to quantify the fluorescence of each patient's back, a prototype able to irradiate the back skin areas with pulsed (D50 pulsing condition) and continuous wavelength (CW) light at 940 nm was built. This machine was assembled at RoseLab Skin Optics Research Laboratory (Montreal, Canada). The D50-940 nm condition was made up of 940 nm light with a pulsing pattern consisting of a 50% duty cycle delivered in the repeating pattern (in μseconds where PD, PI, and PTI mean pulse duration, pulse interval, and pulse train interval, respectively) of: PD 500 on, PI 150 off, PD 500 on, PI 150 off, PD 500 on and PTI 1550 off (FIG. 3). The irradiance delivered for all conditions (D50 and CW) was 75 mW/cm^2 and the fluence delivered for all conditions was 67.5 J/cm^2 (940 nm LED treatment duration D50=30 min and CW=15 min).
# The FluoDerm measured each tested condition. These measurements were then compared to the control (only 5-ALA without photopreparation). The means of these proportional changes were calculated. The final results were categorized by every photopreparation condition (72, 48 and 24 hours pre-treatment). A 95% confidence interval was calculated for each mean.
# The data is analyzed and presented as X-fold changes (or differences) as compared to the just 5-ALA control below. Higher number show a higher effect of pre-treatment with IR radiation.
compound,measurement,setting,value
"NCC(=O)CCC(=O)O [5-ALA, 5-aminolevulinic acid]",time clearing was maintained post-treatment,[1]; especially on the radiant IR pre-treated side,up to 6 months
same,improvement of SH lesions,"[1]; other side, no IR preparation, PDT alone, single treatment",30%
same,lesion number reduction,"[2]; IR treated side (970 nm, 80 mW/cm2, 30 min), 90 min incubation, one treatment",60-70%
same,clinical outcome of side without IR,"[2]; untreated (no IR) side, PDT alone",needed an additional PDT session to achieve similar results
same,"X-fold change of fluorescence as compared to the just 5-ALA control, Mean","[3]; 24 hours pre-treatment, CW-940, 75 mW/cm2, 67.5 J/cm2",1.18 fold
same,"X-fold change of fluorescence as compared to the just 5-ALA control, Mean","[3]; 24 hours pre-treatment, D50-940, 75 mW/cm2, 67.5 J/cm2",1.27 fold
same,"X-fold change of fluorescence as compared to the just 5-ALA control, Mean","[3]; 48 hours pre-treatment, CW-940, 75 mW/cm2, 67.5 J/cm2",1.34 fold
same,"X-fold change of fluorescence as compared to the just 5-ALA control, Mean","[3]; 48 hours pre-treatment, D50-940, 75 mW/cm2, 67.5 J/cm2",1.08 fold
same,"X-fold change of fluorescence as compared to the just 5-ALA control, Mean","[3]; 72 hours pre-treatment, CW-940, 75 mW/cm2, 67.5 J/cm2",1.05 fold
same,"X-fold change of fluorescence as compared to the just 5-ALA control, Mean","[3]; 72 hours pre-treatment, D50-940, 75 mW/cm2, 67.5 J/cm2",0.94 fold
